From patent US20260207602A1, “EGFR INHIBITORS” (Blueprint Medicines Corporation, priority 2022, published 2026)

What was measured:
[1] = target: T1, EGFR L858R (Homo sapiens, UniProt P00533, L858R); assay: Biochemical EGFR inhibition assay (Caliper mobility shift), EGFR L858R; settings: biochemical Caliper mobility shift assay, EGFR L858R enzyme; read-out: Enz EGFR L858R IC50
T1 construct: purchased SignalChem E10-122BG
Procedure: (§1) Inhibitory effects of the compounds of the disclosure were measured in biochemical assays that measure the phosphorylation activity of EGFR enzyme phosphorylates 2.5 micromolar 5-FAM-[…]-CONH2 peptide substrate (ProfilerPro Kinase Peptide Substrate 22, PerkinElmer, Part #760366) in the presence of adenosine-5′-triphosphate (ATP) and varying concentrations of the test compound in 100 mM 2-[4-(2-hydroxyethyl)piperazin-1-yl]ethanesulfonic acid (HEPES), pH 7.5, 10 mM MgCl2, 0.015% Brij-35, 1 mM dithiothreitol (DTT), 1.0% dimehylsulfoxide (DMSO). Assays were performed at 1.0 mM ATP or at ATP Km of the EGFR enzymes. Reactions proceeded until between 10% to 20% total peptides were phosphorylated at room temperature (25° C.) and were terminated with 35 mM 2,2′,2″,2′″-(ethane-1,2-diyldinitrilo)tetraacetic acid (EDTA). Product was detected using the Caliper mobility shift detection method where the phosphorylated peptide (product) and substrate were electrophoretically separated and measured. Percent activity was plotted against log concentration of compound and points to generate an apparent IC50. The following enzyme forms of • EGFR were examples that were used in these assays: • EGFR WT (SignalChem, E10-112G) • EGFR L858R (SignalChem, E10-122BG) • EGFR (d746-750) (SignalChem, E10-122JG) • EGFR L858R C797S (SignalChem, E10-122ZG) • EGFR (d746-750) C797S (SignalChem, E10-122TG)

[2] = target: T2, EGFR (d746-750) (Homo sapiens, UniProt P00533, DEL746-750); assay: Biochemical EGFR inhibition assay (Caliper mobility shift), EGFR (d746-750); settings: biochemical Caliper mobility shift assay, EGFR Exon 19-del enzyme; read-out: Enz EGFR Exon 19-del IC50
T2 construct: purchased SignalChem E10-122JG
Procedure: as §1

[3] = target: intracellular phosphorylation of EGFR (Tyr1068) in PC-9 cells (Homo sapiens, UniProt P00533, DEL746-750); assay: PC-9 pEGFR AlphaLISA assay; type: cell-based; settings: 4 hours incubation, read-out: Phos EGFR PC9 IC50
Procedure: PC-9/A431 pEGFR AlphaLISA Assays
Inhibitory effects of compounds were evaluated in cellular assays that measure level of intracellular phosphorylation of EGFR in PC-9 (ECACC, #90071810, Milipore/Sigma) and A431 cell lines (ATCC, CRL-1555) using AlphaLISA sureFire ultra p-EGFR (Tyr1068) assay kit (PerkinElmer, ALSU-PEGFR-A50K). PC-9 cells were seeded at 3.125×10^5 cells/ml in 40 μL phenol-free DMEM supplemented with 10% FBS per well of a 384 well plate (Corning, 3764), while A431 were seeded at […] in 40 μL in phenol-free DMEM with 0.5% FBS. Cells were allowed to adhere overnight at 37° C./5% CO2. On the next day, compounds were transferred at 4-fold, 10-point serial dilution from compound source plate to cell plates using liquid handler Echo550 and were incubated at 37° C./5% CO2 for 4 hours. A431 cells were stimulated prior harvesting for 10 min with EGF at final concentration of 30 ng/ml in the incubator. Medium was removed from the plates and cells were lysed with 10 μL of 1× AlphaLISA lysis buffer (supplemented with 1× protease/phosphatase inhibitor cocktail) followed by shaking at 600 rpm for 30 minutes at room temperature. Lysates were transferred to Optiplate (Apricot designs) and 5 ul of 1× acceptor bead mix (prepared just before use) was added to each well followed by incubation at room temperature for 1.5-2 h in dark. Then 5 μL of freshly-made donor bead mix is added to each well under subdued lighting or green filters, was mixed well on the shaker and the plate was sealed and left for an overnight incubation at room temperature in dark. On the next day, the plate was read the Envision using standard AlphaLisa settings. Percent of pEGFR inhibition was plotted against log concentration of compounds to generate IC50 values.

T1 sequence (P00533 25-1210 L858R): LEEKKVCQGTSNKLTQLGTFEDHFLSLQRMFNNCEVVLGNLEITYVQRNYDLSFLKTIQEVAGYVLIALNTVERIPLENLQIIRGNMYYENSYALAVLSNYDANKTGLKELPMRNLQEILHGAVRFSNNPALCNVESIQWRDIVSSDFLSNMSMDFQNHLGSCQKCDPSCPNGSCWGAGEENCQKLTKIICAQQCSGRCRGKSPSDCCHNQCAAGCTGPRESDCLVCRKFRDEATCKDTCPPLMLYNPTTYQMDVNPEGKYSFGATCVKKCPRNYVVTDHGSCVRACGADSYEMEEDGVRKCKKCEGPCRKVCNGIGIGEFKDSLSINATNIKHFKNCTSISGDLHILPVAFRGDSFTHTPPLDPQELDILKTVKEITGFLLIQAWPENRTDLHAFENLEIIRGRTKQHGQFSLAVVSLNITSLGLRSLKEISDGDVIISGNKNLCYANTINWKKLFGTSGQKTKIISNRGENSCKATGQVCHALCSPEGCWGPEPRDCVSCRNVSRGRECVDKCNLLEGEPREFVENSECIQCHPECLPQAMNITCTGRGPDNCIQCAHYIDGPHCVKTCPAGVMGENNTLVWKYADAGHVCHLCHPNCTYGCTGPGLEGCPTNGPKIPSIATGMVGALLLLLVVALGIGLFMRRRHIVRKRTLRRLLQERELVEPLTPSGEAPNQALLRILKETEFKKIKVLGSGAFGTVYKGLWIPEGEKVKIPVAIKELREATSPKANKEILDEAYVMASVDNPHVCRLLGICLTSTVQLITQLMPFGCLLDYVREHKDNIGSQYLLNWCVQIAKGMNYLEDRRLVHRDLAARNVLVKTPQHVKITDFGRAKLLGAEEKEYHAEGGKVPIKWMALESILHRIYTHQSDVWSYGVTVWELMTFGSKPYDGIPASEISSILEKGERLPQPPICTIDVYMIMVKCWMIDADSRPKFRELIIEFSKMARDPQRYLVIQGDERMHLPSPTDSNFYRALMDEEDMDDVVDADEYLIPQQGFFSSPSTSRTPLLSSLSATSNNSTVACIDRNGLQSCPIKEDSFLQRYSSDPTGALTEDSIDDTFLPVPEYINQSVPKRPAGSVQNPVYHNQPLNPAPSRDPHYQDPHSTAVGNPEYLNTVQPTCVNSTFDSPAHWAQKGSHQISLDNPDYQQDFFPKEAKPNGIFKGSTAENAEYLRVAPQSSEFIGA
T2 sequence (P00533 with tags, fused parts or gaps DEL746-750 limits assumed): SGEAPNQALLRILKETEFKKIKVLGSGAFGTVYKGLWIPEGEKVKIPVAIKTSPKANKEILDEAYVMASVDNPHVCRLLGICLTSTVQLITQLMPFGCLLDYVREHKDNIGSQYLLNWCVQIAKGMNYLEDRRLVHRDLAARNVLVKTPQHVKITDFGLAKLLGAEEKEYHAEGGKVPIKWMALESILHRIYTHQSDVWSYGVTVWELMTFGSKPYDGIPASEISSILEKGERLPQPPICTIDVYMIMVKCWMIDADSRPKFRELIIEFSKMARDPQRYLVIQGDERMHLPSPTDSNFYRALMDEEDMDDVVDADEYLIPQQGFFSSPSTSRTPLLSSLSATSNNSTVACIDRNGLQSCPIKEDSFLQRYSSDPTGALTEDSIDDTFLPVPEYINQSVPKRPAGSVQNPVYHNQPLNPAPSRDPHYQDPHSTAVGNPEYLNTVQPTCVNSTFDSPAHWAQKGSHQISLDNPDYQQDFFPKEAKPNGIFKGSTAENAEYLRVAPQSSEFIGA
Sequence of intracellular phosphorylation of EGFR (Tyr1068) in PC-9 cells (P00533 with tags, fused parts or gaps DEL746-750): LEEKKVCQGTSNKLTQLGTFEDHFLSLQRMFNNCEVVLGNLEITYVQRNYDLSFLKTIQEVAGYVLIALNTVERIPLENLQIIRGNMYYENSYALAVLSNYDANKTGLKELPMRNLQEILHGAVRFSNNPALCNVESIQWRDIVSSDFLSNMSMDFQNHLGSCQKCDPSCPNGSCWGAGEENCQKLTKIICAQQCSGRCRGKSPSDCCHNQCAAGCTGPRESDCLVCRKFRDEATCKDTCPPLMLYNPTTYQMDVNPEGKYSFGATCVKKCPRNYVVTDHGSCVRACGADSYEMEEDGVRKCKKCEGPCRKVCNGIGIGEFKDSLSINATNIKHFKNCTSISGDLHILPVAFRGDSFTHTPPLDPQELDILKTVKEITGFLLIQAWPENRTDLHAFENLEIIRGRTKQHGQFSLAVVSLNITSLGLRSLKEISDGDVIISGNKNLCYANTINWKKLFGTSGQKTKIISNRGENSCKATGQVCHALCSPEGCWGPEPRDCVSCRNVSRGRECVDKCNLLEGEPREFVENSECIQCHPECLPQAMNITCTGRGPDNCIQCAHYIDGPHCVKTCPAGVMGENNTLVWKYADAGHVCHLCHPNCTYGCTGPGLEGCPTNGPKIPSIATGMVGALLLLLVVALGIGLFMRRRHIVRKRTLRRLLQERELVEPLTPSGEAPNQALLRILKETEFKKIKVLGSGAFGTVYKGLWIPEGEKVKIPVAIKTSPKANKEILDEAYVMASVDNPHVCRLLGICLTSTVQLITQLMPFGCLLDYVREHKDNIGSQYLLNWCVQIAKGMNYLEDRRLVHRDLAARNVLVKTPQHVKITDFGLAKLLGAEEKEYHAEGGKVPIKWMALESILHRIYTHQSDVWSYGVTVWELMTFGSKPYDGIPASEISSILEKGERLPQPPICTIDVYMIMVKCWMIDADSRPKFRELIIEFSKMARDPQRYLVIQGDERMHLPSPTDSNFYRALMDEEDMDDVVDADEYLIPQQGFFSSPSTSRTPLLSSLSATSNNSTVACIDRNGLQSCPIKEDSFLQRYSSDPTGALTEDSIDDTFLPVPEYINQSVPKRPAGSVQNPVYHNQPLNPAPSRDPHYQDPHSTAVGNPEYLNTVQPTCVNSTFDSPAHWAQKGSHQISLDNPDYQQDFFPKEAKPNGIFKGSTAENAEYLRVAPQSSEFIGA

CN(C)C1(COc2cc(-c3cnn(C)c3)cc3ncnc(Nc4ccc5ncsc5c4)c23)COC1 [Example 187, N-(5-((3-(dimethylamino)oxetan-3-yl)methoxy)-7-(1-methyl-1H-pyrazol-4-yl)quinazolin-4-yl)benzo[d]thiazol-6-amine]
IC50 [1]: 10.1 to 50 nM
IC50 [2]: ≤ 10 nM
IC50 [3]: 10.1 to 50 nM

COc1cn(C)nc1-c1cc(OC2CCN(C)CC2)c2c(Nc3ccc4ncsc4c3)ncnc2c1 [Example 314, N-(7-(4-methoxy-1-methyl-1H-pyrazol-3-yl)-5-((1-methylpiperidin-4-yl)oxy)quinazolin-4-yl)benzo[d]thiazol-6-amine]
IC50 [1]: ≤ 10 nM
IC50 [2]: ≤ 10 nM
IC50 [3]: ≤ 10 nM

C[C@@H]1OC[C@H]1Oc1cc(-c2cnn(C)c2)cc2ncnc(Nc3ccc4ncsc4c3)c12 (racemic) [Example 10, trans-N-(7-(1-methyl-1H-pyrazol-4-yl)-5-(((2S,3S)-2-methyloxetan-3-yl)oxy)quinazolin-4-yl)benzo[d]thiazol-6-amine]
IC50 [1]: ≤ 10 nM
IC50 [2]: ≤ 10 nM
IC50 [3]: 10.1 to 50 nM

COCCOc1cc(O[C@H](C)C2COC2)c2c(Nc3ccc4ncsc4c3F)ncnc2c1 (single isomer, unassigned) [Example 85]
IC50 [1]: ≤ 10 nM
IC50 [2]: ≤ 10 nM
IC50 [3]: 10.1 to 50 nM

COc1cc2ncnc(Nc3ccc4ncsc4c3)c2cc1NC(=O)C1CCCN(C)C1 (stereo not shown) [Example 401, N-(4-(benzo[d]thiazol-6-ylamino)-7-methoxyquinazolin-6-yl)-1-methylpiperidine-3-carboxamide]
IC50 [1]: 10.1 to 50 nM
IC50 [2]: 10.1 to 50 nM
IC50 [3]: 10.1 to 50 nM

CO[C@H]1CCN(c2cc(O[C@H](C)C3COC3)c3c(Nc4ccc5ncsc5c4)ncnc3c2)C1 [Example 197, N-(7-((S)-3-methoxypyrrolidin-1-yl)-5-((R)-1-(oxetan-3-yl)ethoxy)quinazolin-4-yl)benzo[d]thiazol-6-amine]
IC50 [1]: ≤ 10 nM
IC50 [2]: ≤ 10 nM
IC50 [3]: ≤ 10 nM

CC(Oc1cc(-c2cnn(C)c2)cc2ncnc(Nc3ccc4ncsc4c3)c12)C(F)F (racemic) [Example 51, (rac)-N-(5-((1,1-difluoropropan-2-yl)oxy)-7-(1-methyl-1H-pyrazol-4-yl)quinazolin-4-yl)benzo[d]thiazol-6-amine]
IC50 [1]: ≤ 10 nM
IC50 [2]: ≤ 10 nM
IC50 [3]: ≤ 10 nM

CN1CC[C@@H]2CN(C(=O)Nc3cc4c(Nc5ccc6ncsc6c5)ncnc4cc3-c3ccn(C)n3)C[C@@H]21 [Example 252, (3aR,6aR)-N-(4-(benzo[d]thiazol-6-ylamino)-7-(1-methyl-1H-pyrazol-3-yl)quinazolin-6-yl)-1-methylhexahydropyrrolo[3,4-b]pyrrole-5(1H)-carboxamide]
IC50 [1]: ≤ 10 nM
IC50 [2]: ≤ 10 nM
IC50 [3]: ≤ 10 nM

C[C@H](CN1CCOCC1)Oc1cc(-c2cnn(C)c2)cc2ncnc(Nc3ccc4ncsc4c3)c12 [Example 395, (R)-N-(7-(1-methyl-1H-pyrazol-4-yl)-5-((1-morpholinopropan-2-yl)oxy)quinazolin-4-yl)benzo[d]thiazol-6-amine]
IC50 [1]: ≤ 10 nM
IC50 [2]: ≤ 10 nM
IC50 [3]: 10.1 to 50 nM

Cn1cc(-c2cc(OC3CC3)c3c(Nc4ccc5ncsc5c4)ncnc3c2)cn1 [Example 259, N-(5-cyclopropoxy-7-(1-methyl-1H-pyrazol-4-yl)quinazolin-4-yl)benzo[d]thiazol-6-amine]
IC50 [1]: ≤ 10 nM
IC50 [2]: ≤ 10 nM
IC50 [3]: ≤ 10 nM

CC[C@@H](Oc1cc(-c2cnn(C)c2)cc2ncnc(Nc3ccc4ncsc4c3F)c12)C1COC1 (single isomer, unassigned) [Example 92]
IC50 [1]: ≤ 10 nM
IC50 [2]: ≤ 10 nM
IC50 [3]: ≤ 10 nM

COc1cc2c(Nc3ccc4ncsc4c3F)ncnc2cc1-c1cn(C)nc1OC [Example 264, 7-fluoro-N-(6-methoxy-7-(3-methoxy-1-methyl-1H-pyrazol-4-yl)quinazolin-4-yl)benzo[d]thiazol-6-amine]
IC50 [1]: ≤ 10 nM
IC50 [2]: ≤ 10 nM
IC50 [3]: 10.1 to 50 nM

Cn1cc(-c2cc(O[C@H]3CCOC[C@@H]3F)c3c(Nc4ccc5ncsc5c4)ncnc3c2)cn1 (single isomer, unassigned) [Example 45]
IC50 [1]: ≤ 10 nM
IC50 [2]: ≤ 10 nM
IC50 [3]: 10.1 to 50 nM

CC(C)N1CCC(Oc2cc(-c3cnn(C)c3)cc3ncnc(Nc4ccc5ncsc5c4)c23)C1=O (racemic) [Example 62, (rac)-3-((4-(benzo[d]thiazol-6-ylamino)-7-(1-methyl-1H-pyrazol-4-yl)quinazolin-5-yl)oxy)-1-isopropylpyrrolidin-2-one]
IC50 [1]: ≤ 10 nM
IC50 [2]: ≤ 10 nM
IC50 [3]: ≤ 10 nM

COCCN1CCC(Oc2cc(-c3nn(C)cc3OC)cc3ncnc(Nc4ccc5ncsc5c4)c23)CC1 [Example 308, N-(7-(4-methoxy-1-methyl-1H-pyrazol-3-yl)-5-((1-(2-methoxyethyl)piperidin-4-yl)oxy)quinazolin-4-yl)benzo[d]thiazol-6-amine]
IC50 [1]: 10.1 to 50 nM
IC50 [2]: ≤ 10 nM
IC50 [3]: 10.1 to 50 nM

COc1cc(-c2cc(OC3CCOCC3)c3c(Nc4ccc5ncsc5c4)ncnc3c2)n(C)n1 [Example 256, N-(7-(3-methoxy-1-methyl-1H-pyrazol-5-yl)-5-((tetrahydro-2H-pyran-4-yl)oxy)quinazolin-4-yl)benzo[d]thiazol-6-amine]
IC50 [1]: > 50.1 nM
IC50 [2]: > 50.1 nM

COc1nn(C2CCN(C)CC2)cc1-c1cc(F)c2c(Nc3ccc4ncsc4c3F)ncnc2c1 [Example 226, 7-fluoro-N-(5-fluoro-7-(3-methoxy-1-(1-methylpiperidin-4-yl)-1H-pyrazol-4-yl)quinazolin-4-yl)benzo[d]thiazol-6-amine]
IC50 [1]: > 50.1 nM
IC50 [2]: 10.1 to 50 nM

CN1CCN(C(=O)Oc2cc(OC3CCOCC3)c3c(Nc4ccc5ncsc5c4)ncnc3c2)CC1 [Example A11, 4-[(1,3-benzothiazol-6-yl)amino]-5-(oxan-4-yloxy)quinazolin-7-yl 4-methylpiperazine-1-carboxylate]
IC50 [1]: > 50.1 nM
IC50 [2]: 10.1 to 50 nM

COc1cc2ncnc(Nc3ccc4ncsc4c3)c2cc1N[C@@H]1CCN(C)C[C@H]1F [Example 301, N4-(benzo[d]thiazol-6-yl)-N6-((3R,4R)-3-fluoro-1-methylpiperidin-4-yl)-7-methoxyquinazoline-4,6-diamine]
IC50 [1]: ≤ 10 nM
IC50 [2]: ≤ 10 nM

CN1CCN(c2cc(OC3CCOCC3)c3c(Nc4ccc5ncsc5c4)ncnc3c2)CC1(C)C [Example A58, N-(5-((tetrahydro-2H-pyran-4-yl)oxy)-7-(3,3,4-trimethylpiperazin-1-yl)quinazolin-4-yl)benzo[d]thiazol-6-amine]
IC50 [1]: > 50.1 nM
IC50 [2]: > 50.1 nM

C[C@H]1[C@H](Oc2cc(-c3cnn(C)c3)cc3ncnc(Nc4ccc5ncsc5c4)c23)CN1C (single isomer, unassigned) [Example 322]
IC50 [1]: 10.1 to 50 nM
IC50 [2]: ≤ 10 nM

CN1CC[C@@](C)(COc2cc(-c3cnn(C)c3)cc3ncnc(Nc4ccc5ncsc5c4)c23)C1=O (single isomer, unassigned) [Example 56]
IC50 [1]: ≤ 10 nM
IC50 [3]: 10.1 to 50 nM

CN1CC[C@@H](Oc2cc(-c3cnn(C)c3)cc3ncnc(Nc4ccc5ncsc5c4F)c23)C1 [Example 4, (R)-7-fluoro-N-(7-(1-methyl-1H-pyrazol-4-yl)-5-((1-methylpyrrolidin-3-yl)oxy)quinazolin-4-yl)benzo[d]thiazol-6-amine]
IC50 [1]: 10.1 to 50 nM
IC50 [3]: 10.1 to 50 nM
